Literature values as cited in patent US20230210738A1, “Low-Skin Irritating Deodorant Composition And A Method For Preparing Thereof” (Sislan (Zhuhai) Pharmaceutical Technology Co. Ltd., priority 2021, published 2023).

Assays:
[1] = test system: bacteria; conditions: hexamine prepared in basic condition
[2] = hexamine as weak base

Question: For `C1N2CN3CN1CN(C2)C3` [hexamine, hexamethylenetetramine], which antibacterial effect [1] is on record?
Answer: capable of demonstrating an antibacterial effect

Question: What about the “neutralization of odoriferous, volatile organic acids” value [2] of the same molecule?
Answer: able to neutralize a number of odoriferous, volatile organic acids
